# Results as given in patent publication US20130137682A1, “PEST CONTROL COMPOSITION” (SUMITOMO CHEMICAL COMPANY, LIMITED, priority 2010, published 2013).
# Test system: Haemaphysalis longicornis
# Assay: Test Example 3: insecticidal test on Haemaphysalis longicornis by treating glass surface
# Assay type: in vivo
# Conditions: 48 h, read-out: Mortality Rate (%)
# Protocol: Insecticidal Test on Haemaphysalis longicornis by Treating Glass Surface
# Acetone solutions were each prepared for the present hydrazide compounds and the present neonicotinoid compounds. To inner walls of a glass screw tube and lid (NO. 5, manufactured by Maruemu Corporation), 0.2 mL of the acetone solution was uniformly applied. […] The lid is closed tightly, and the number of dead ticks is examined after 2 days.
compound,measurement,value
"CCN(Cc1ccc(Cl)nc1)/C(=C/[N+](=O)[O-])NC [Nitenpyram, nitenpyram]",mortality at 500 mg/m2,20%
